In patent US20240335443A1, “IMIDAZOLOPYRIDAZINE OR PYRAZOLOPYRIMIDINE COMPOUNDS AND COMPOSITIONS” (Anrui Biomedical Technology (Guangzhou) Co., Ltd., priority 2021, published 2024):
Where two headings read alike, the source gives them in different places.

What was measured:
[1] = target: T1, N-terminal His-tagged TYK2 pseudokinase domain (Homo sapiens, UniProt P29597); test: TYK2 JH2 domain SPA binding assay; conditions: displacement of H3 probe (20 nM), 30 min room temperature; class symbols
T1 construct: the N-terminal His-tagged TYK2 pseudokinase domain; His (N); purchased Pharmaron
T1 sequence (P29597 589-875 limits assumed): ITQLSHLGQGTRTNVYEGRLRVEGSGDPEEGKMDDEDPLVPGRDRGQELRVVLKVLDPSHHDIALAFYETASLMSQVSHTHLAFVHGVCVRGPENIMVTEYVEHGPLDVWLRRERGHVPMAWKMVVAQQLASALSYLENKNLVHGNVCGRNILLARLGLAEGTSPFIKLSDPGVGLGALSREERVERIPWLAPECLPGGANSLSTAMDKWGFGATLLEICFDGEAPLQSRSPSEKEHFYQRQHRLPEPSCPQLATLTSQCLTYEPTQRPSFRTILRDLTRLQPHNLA
Experimental: TYK2 JH2 Domain Binding Assay
After incubating at room temperature for 30 min, the inhibition was calculated by the displacement of [3H] 3 binding as determined by scintillation counting. Dose-response curves were generated to determine the concentration required to inhibit H3 probe binding by […] (IC50).

[2] = test system: IL-23 induced STAT3 in HEK-Blue™ IL-23 cells; test: IL-23 induced STAT3 QUANTI-Blue reporter assay in HEK-Blue IL-23 cells; assay type: cell-based; conditions: IL-23 0.1 ng/mL, SEAP levels, class symbols, read-out: IL23 reporter assay (IC50 nM)
Experimental: Biological Example 2. IL-23 Induced STAT3 QUANTI-Blue in HEK-Blue™ IL-23 Cells
HEK-Blue™ IL-23 cells were prepared at 2×10^5 cells/ml for adding 5000 cell/well and incubate plates containing compounds+cells for 1 hour at 37° C. Prepare IL-23 (treatment at final conc. 0.1 ng/mL) during incubation and add 2 ul per well of prepared cytokine in media to appropriate wells. The plate is incubated for overnight at 37° C. The next day, QUANTI-Blue solution is prepared. 18 ul of QUANTI-Blue solution per well is added into a new 384-well clear flat bottom plate, then add 2 ul of induced and treated HEK-Blue cell supernatant from overnight plate. Incubate the plate at 37° C. for 2 hours and determine SEAP levels.

[3] = HEK-Blue IL-23, HEK-Blue IL-23 cells

SMILES | IC50 [1] | IC50 [2, 3] | IC50 ([2]; HEK-Blue IL-23 cells)
CNc1cc(Nc2cccc(C)n2)nc2c(C(=O)NC3CCn4ncnc43)cnn12 (racemic) [Compound 33] | 10 to 100 nM | < 10 nM | –
CNc1cc(Nc2cccn(C3CCC4(CC3)COC4)c2=O)nn2c(C(=O)N[C@@H]3C[C@@H]3F)cnc12 [Compound 73] | 10 to 100 nM | < 10 nM | –
[2H]C([2H])([2H])Nc1cc(Nc2cccn([C@H]3C[C@H](OC(F)(F)F)C3)c2=O)nn2c(C(=O)N[C@@H]3C[C@H]4CCO[C@H]43)cnc12 [Compound 89] | 10 to 100 nM | 10 to 100 nM | –
[2H]C([2H])([2H])Nc1cc(Nc2cccn(C3C[C@H]4CC[C@@H](C3)O4)c2=O)nn2c(C(=O)N[C@@H]3C[C@@H]3F)cnc12 (stereo partly drawn) [Compound 80] | 10 to 100 nM | 10 to 100 nM | –
[2H]C([2H])([2H])Nc1cc(Nc2cccn(-c3ncccc3F)c2=O)nn2c(C(=O)N[C@@H]3C[C@H]4CCO[C@H]43)cnc12 [Compound 5, N-((1R,5S,7R)-2-oxabicyclo[3.2.0]heptan-7-yl)-6-((3′-fluoro-2-oxo-2H-[1,2′-bipyridin]-3-yl)amino)-8-((methyl-d3)amino)imidazo[1,2-b]pyridazine-3-carboxamide] | 10 to 100 nM | < 10 nM | –
[2H]C([2H])([2H])Nc1cc(Nc2cccn([C@H]3CC[C@H](OC([2H])([2H])[2H])CC3)c2=O)nn2c(C(=O)N[C@@H]3C[C@@H]3F)cnc12 [Compound 69] | 10 to 100 nM | < 10 nM | –
CNc1cc(Nc2cccn(-c3ccn(C)n3)c2=O)nn2c(C(=O)NC(C)c3ncco3)cnc12 (single isomer, unassigned) [Compound 49b] | > 1000 nM | – | ≥ 1000 nM
[2H]C([2H])([2H])Nc1cc(Nc2cccn([C@H]3C[C@H](OC([2H])([2H])[2H])C3)c2=O)nc2c(C(=O)N[C@@H]3C[C@H]4CCO[C@H]43)cnn12 [Compound 19, N-((1R,5S,7R)-2-oxabicyclo[3.2.0]heptan-7-yl)-5-((1-((1r,3r)-3-(methoxy-d3)cyclobutyl)-2-oxo-1,2-dihydropyridin-3-yl)amino)-7-((methyl-d3)amino)pyrazolo[1,5-a]pyrimidine-3-carboxamide] | 10 to 100 nM | 10 to 100 nM | –
CNc1cc(Nc2cccn([C@H]3CC[C@H](OC)CC3)c2=O)nn2c(C(=O)N[C@@H]3C[C@H]4CCO[C@H]43)cnc12 [Compound 63] | < 10 nM | < 10 nM | –
CNc1cc(Nc2cccc(N3CCCC3=O)n2)nn2c(C(=O)NC(C)c3ncco3)cnc12 (racemic) [Compound 28] | 10 to 100 nM | < 10 nM | –
CNc1cc(Nc2cccn([C@H]3C[C@H](OC)C3)c2=O)nn2c(C(=O)N[C@@H]3C[C@H]4CCO[C@H]43)cnc12 [Compound 82] | 10 to 100 nM | < 10 nM | –
CNc1cc(Nc2cccn(-c3ccccn3)c2=O)nn2c(C(=O)NC3CCC4CCOC43)cnc12 (racemic) [Compound 10a, N-(hexahydro-2H-cyclopenta[b]furan-6-yl)-8-(methylamino)-6-((2-oxo-2H-[1,2′-bipyridin]-3-yl)amino)imidazo[1,2-b]pyridazine-3-carboxamide] | 10 to 100 nM | – | 10 to 100 nM
CNc1cc(Nc2cccc3c2OCCC3)nn2c(C(=O)N[C@@H]3C[C@H]4CCO[C@H]43)cnc12 (racemic) [Compound 25] | < 10 nM | < 10 nM | –
CNc1cc(Nc2cccn(-c3ccccc3)c2=O)nn2c(C(=O)NC3CCn4ncnc43)cnc12 (racemic) [Compound 47] | 10 to 100 nM | < 10 nM | –
CNc1cc(Nc2cccn(C3CCC4(CC3)COC4)c2=O)nn2c(C(=O)N[C@@H]3C[C@H]4CCO[C@H]43)cnc12 [Compound 12, N-((1R,5S,7R)-2-oxabicyclo[3.2.0]heptan-7-yl)-8-(methylamino)-6-((2-oxo-1-(2-oxaspiro[3.5]nonan-7-yl)-1,2-dihydropyridin-3-yl)amino)imidazo[1,2-b]pyridazine-3-carboxamide] | < 10 nM | < 10 nM | –
CNc1cc(Nc2cccn(C3C[C@H]4CC[C@@H](C3)O4)c2=O)nc2c(C(=O)N[C@@H]3C[C@@H]3F)cnn12 (stereo partly drawn) [Compound 81] | 10 to 100 nM | 10 to 100 nM | –
[2H]C([2H])([2H])Nc1cc(Nc2cccc(N3CCCC3=O)n2)nn2c(C(=O)NC3C[C@H]4CCOC34)cnc12 (mixture of isomers) [Compound 31] | < 10 nM | < 10 nM | –
CNc1cc(Nc2cccn(C3C[C@H]4CC[C@@H](C3)O4)c2=O)nn2c(C(=O)N[C@@H]3C[C@@H]3F)cnc12 (single isomer, unassigned) [Compound 79a] | 10 to 100 nM | 10 to 100 nM | –
[2H]C([2H])([2H])Nc1cc(Nc2cccn(C3CCCC4(COC4)C3)c2=O)nn2c(C(=O)N[C@@H]3C[C@@H]3F)cnc12 (single isomer, unassigned) [Compound 75b] | 10 to 100 nM | – | 10 to 100 nM
CNc1cc(Nc2cccn(CC3CCCO3)c2=O)nn2c(C(=O)N[C@@H]3C[C@H]4CCO[C@H]43)cnc12 (single isomer, unassigned) [Compound 62a] | 100 to 1000 nM | 10 to 100 nM | –
[2H]C([2H])([2H])Nc1cc(Nc2cccn([C@H]3C[C@H](OC([2H])([2H])[2H])C3)c2=O)nn2c(C(=O)N[C@@H]3C[C@H]4CCO[C@H]43)cnc12 [Compound 84] | 10 to 100 nM | 10 to 100 nM | –
[2H]c1onc2c1CCC2NC(=O)c1cnc2c(NC)cc(Nc3cccn(-c4ccccn4)c3=O)nn12 (stereo not drawn) [Compound 8, N-(5,6-dihydro-4H-cyclopenta[c]isoxazol-6-yl-3-d)-8-(methylamino)-6-((2-oxo-2H-[1,2′-bipyridin]-3-yl)amino)imidazo[1,2-b]pyridazine-3-carboxamide] | < 10 nM | < 10 nM | –
CNc1cc(Nc2cccn(-c3ccccn3)c2=O)nc2c(C(=O)NC3CCn4ncnc43)cnn12 (stereo not drawn) [Compound 17, N-(6,7-dihydro-5H-pyrrolo[1,2-b][1,2,4]triazol-7-yl)-7-(methylamino)-5-((2-oxo-2H-[1,2′-bipyridin]-3-yl)amino)pyrazolo[1,5-a]pyrimidine-3-carboxamide] | 10 to 100 nM | 10 to 100 nM | –
CNc1cc(Nc2cccn([C@H]3C[C@H](OC)C3)c2=O)nn2c(C(=O)N[C@@H]3C[C@@H]3F)cnc12 [Compound 99] | 10 to 100 nM | 10 to 100 nM | –
CNc1cc(Nc2cccn([C@H]3C[C@H](F)C3)c2=O)nn2c(C(=O)NC3CCn4ncnc43)cnc12 (mixture of isomers) [Compound 91] | 10 to 100 nM | 10 to 100 nM | –
CNc1cc(Nc2cccn(-c3ccccn3)c2=O)nn2c(C(=O)NC3CCc4conc43)cnc12 (stereo not drawn) [Compound 7, N-(5,6-dihydro-4H-cyclopenta[c]isoxazol-6-yl)-8-(methylamino)-6-((2-oxo-2H-[1,2′-bipyridin]-3-yl)amino)imidazo[1,2-b]pyridazine-3-carboxamide] | < 10 nM | < 10 nM | –
[2H]C([2H])([2H])Nc1cc(Nc2cccn(-c3ccccn3)c2=O)nc2c(C(=O)NC(C)c3ncco3)cnn12 (racemic) [Compound 35] | 10 to 100 nM | 10 to 100 nM | –

Further lines, with some results ahead:

IC50 [1] | SMILES | IC50 [2, 3] | IC50 ([2]; HEK-Blue IL-23 cells)
100 to 1000 nM | CNc1cc(Nc2cccn(C3CC4CCOC43)c2=O)nn2c(C(=O)N[C@@H]3C[C@@H]3F)cnc12 (single isomer, unassigned) [Compound 105a] | 10 to 100 nM | –
10 to 100 nM | CNc1cc(Nc2cccn(C3CC(C)(OC)C3)c2=O)nn2c(C(=O)N[C@@H]3C[C@H]4CCO[C@H]43)cnc12 (single isomer, unassigned) [Compound 92a] | 10 to 100 nM | –
10 to 100 nM | [2H]C([2H])([2H])Nc1cc(Nc2cccn(C3CC4OCCC43)c2=O)nn2c(C(=O)N[C@@H]3C[C@@H]3F)cnc12 (single isomer, unassigned) [Compound 101b] | – | 10 to 100 nM
10 to 100 nM | CNc1cc(Nc2cccn(C3CC4CCOC43)c2=O)nn2c(C(=O)N[C@@H]3C[C@@H]3F)cnc12 (single isomer, unassigned) [Compound 105c] | – | 10 to 100 nM
10 to 100 nM | [2H]C([2H])([2H])Nc1cc(Nc2cccn(C3CC4(CCOC4)C3)c2=O)nn2c(C(=O)N[C@@H]3C[C@@H]3F)cnc12 (single isomer, unassigned) [Compound 102b] | – | 10 to 100 nM
100 to 1000 nM | CNc1cc(Nc2cccn([C@H]3C[C@H](OC)C3)c2=O)nn2c(C(=O)NC3CCC4CCOC43)cnc12 (single isomer, unassigned) [Compound 88b] | – | 100 to 1000 nM
10 to 100 nM | CNc1cc(Nc2cccn([C@H]3C[C@H](OC)C3)c2=O)nn2c(C(=O)NC3CCC4CCOC43)cnc12 (single isomer, unassigned) [Compound 88a] | – | < 10 nM
10 to 100 nM | [2H]C([2H])([2H])OC1(C)CC(n2cccc(Nc3cc(NC)c4ncc(C(=O)N[C@@H]5C[C@H]6CCO[C@H]65)n4n3)c2=O)C1 (single isomer, unassigned) [Compound 93b] | – | 10 to 100 nM
100 to 1000 nM | [2H]C([2H])([2H])Nc1cc(Nc2cccn(C3CC4(CCOC4)C3)c2=O)nc2c(C(=O)N[C@@H]3C[C@@H]3F)cnn12 (single isomer, unassigned) [Compound 103b] | – | 10 to 100 nM
